According to patent publication US20080287398A1, “COLD MENTHOL RECEPTOR-1 ANTAGONISTS” (priority 2007, published 2008):
Several values for one entry are separate records, joined by “and”; a condition that tells them apart may be missing. Equal entries are not always repeated. Where two headings read alike, the source gives them in different places.

Target: T1, canine TRPM8 (Canis lupus familiaris, UniProt Q1A7N1)
T1 construct: expressed in transfected cells
Assay: In vitro canine TRPM8 functional assay (Ca2+-sensitive dye, FLIPR/FDSS, icilin activation)
Format: cell-based
Details: HEK293 cells expressing canine TRPM8, icilin activation; for % I (0.5 μM): 0.5 μM compound; for IC50: eight-point dose-response; for % I (1 μM): 1 μM compound; for % I (5 μM): 5 μM compound
Outline: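 Icilin challenge (final concentration producing ~80% of maximal response) followed a 5 min compound exposure in canine TRPM8-HEK293 cells dye-loaded with Calcium 3. Intracellular Ca2+ was read on FLIPR/FDSS. EC50 and IC50 values came from nonlinear sigmoidal dose-response fits of basal-subtracted, percent-of-maximum data averaged over quadruplicates.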

[1] = HEK293, read-out: % I (1 μM), 1 μM compound

T1 sequence (Q1A7N1 1-1104): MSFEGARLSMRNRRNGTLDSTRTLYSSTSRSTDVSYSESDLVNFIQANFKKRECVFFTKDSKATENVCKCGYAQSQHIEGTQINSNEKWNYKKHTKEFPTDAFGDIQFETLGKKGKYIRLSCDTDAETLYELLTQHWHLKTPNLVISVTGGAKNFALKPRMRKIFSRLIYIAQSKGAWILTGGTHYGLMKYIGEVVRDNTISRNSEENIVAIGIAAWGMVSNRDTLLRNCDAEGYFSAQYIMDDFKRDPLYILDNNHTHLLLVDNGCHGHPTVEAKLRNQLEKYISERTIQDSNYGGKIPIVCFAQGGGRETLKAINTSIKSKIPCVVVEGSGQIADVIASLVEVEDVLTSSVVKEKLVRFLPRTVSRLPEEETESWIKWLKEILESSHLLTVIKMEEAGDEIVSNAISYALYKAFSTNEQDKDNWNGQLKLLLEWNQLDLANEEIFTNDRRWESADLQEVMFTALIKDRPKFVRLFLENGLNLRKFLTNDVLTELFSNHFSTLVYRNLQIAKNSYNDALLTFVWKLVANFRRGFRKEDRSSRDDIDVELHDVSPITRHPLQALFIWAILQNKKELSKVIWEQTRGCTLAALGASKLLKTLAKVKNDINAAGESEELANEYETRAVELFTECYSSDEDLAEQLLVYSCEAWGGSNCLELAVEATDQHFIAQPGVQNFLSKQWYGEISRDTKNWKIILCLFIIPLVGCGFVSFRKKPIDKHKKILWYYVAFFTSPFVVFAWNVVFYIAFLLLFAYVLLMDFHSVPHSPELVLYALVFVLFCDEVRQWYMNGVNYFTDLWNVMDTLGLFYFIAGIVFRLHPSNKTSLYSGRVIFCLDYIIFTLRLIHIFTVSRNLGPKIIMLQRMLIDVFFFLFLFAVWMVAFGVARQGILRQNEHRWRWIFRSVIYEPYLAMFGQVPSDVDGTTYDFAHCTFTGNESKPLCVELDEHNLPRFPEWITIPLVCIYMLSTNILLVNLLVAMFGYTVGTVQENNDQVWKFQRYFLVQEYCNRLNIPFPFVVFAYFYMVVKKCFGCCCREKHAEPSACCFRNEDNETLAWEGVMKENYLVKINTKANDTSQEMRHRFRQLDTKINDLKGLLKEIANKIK

Compound | % I (0.5 μM) | IC50 (read-out: IC50) | also measured
CC(C)OP(=O)(OC(C)C)C(Cc1cc(Cl)ccc1F)c1sc2ccccc2c1Cl (racemic) [Cpd 303] | 102% | 0.049 µM | –
CCOP(=O)(OCC)C(Cc1ccc(F)c(F)c1)c1sc2ccccc2c1-c1ccc(F)nc1 (stereo not drawn) [Cpd 130, {2-(3,4-Difluoro-phenyl)-1-[3-(6-fluoro-pyridin-3-yl)-benzo[b]thiophen-2-yl]-ethyl}-phosphonic acid diethyl ester] | – | – | inhibition at 1 µM [1]: 100%; IC50 (IC50 (μM)): 0.11 µM
CC(C)OP(=O)(OC(C)C)C(Cc1ccc(Cl)cc1)c1sc2ccccc2c1Br (racemic) [Cpd 288] | 103% | 0.065 µM | –
CCOP(=O)(OCC)C(Cc1ccc(OC(F)(F)F)cc1)c1sc2ccccc2c1Cl (stereo not drawn) [Cpd 277] | 103% | 0.116 µM | –
CC(C)OP(=O)(OC(C)C)C(Cc1ccc(OC(F)(F)F)cc1)c1sc2ccccc2c1Cl (stereo not drawn) [Cpd 187] | 103% | 0.062 µM | –
CCOP(=O)(OCC)C(Cc1ccccc1O)c1sc2ccccc2c1Br (stereo not drawn) [Cpd 323] | 104% | 0.009 µM | –
CCOP(=O)(OCC)C(Cc1cc(C(F)(F)F)ccc1F)c1sc2ccccc2c1Cl (racemic) [Cpd 286] | 102% | 0.127 µM | –
CCOP(=O)(OCC)C(Cc1cccc(-c2ccncc2)c1)c1sc2ccccc2c1C (stereo not drawn) [Cpd 72, [1-(3-Methyl-benzo[b]thiophen-2-yl)-2-(3-pyridin-4-yl-phenyl)-ethyl]-phosphonic acid diethyl ester] | – | – | inhibition at 1 µM [1]: 99%; IC50 (IC50 (μM)): 0.36 µM
CC(C)OP(=O)(OC(C)C)C(Cc1cc(F)cc(C(F)(F)F)c1)c1sc2ccccc2c1Cl (racemic) [Cpd 169] | 104% | 0.096 µM | –
CCOP(=O)(OCC)C(Cc1ccccc1C)c1cc2ccccc2s1 (stereo not drawn) [Cpd 89] | – | 0.52 µM | % I (1 μM): 91%; % I (5 μM): 100%
CCOP(=O)(OCC)C(Cc1cc(F)cc(Cl)c1)c1sc2ccccc2c1Cl (stereo not drawn) [Cpd 276] | 103% | 0.114 µM | –
CCOP(=O)(OCC)C(Cc1ccc(Cl)c(Cl)c1)c1sc2ccccc2c1-c1ccccc1 (stereo not drawn) [Cpd 64, [2-(3,4-Dichloro-phenyl)-1-(3-phenyl-benzo[b]thiophen-2-yl)-ethyl]-phosphonic acid diethyl ester] | – | – | inhibition at 1 µM [1]: 64%; IC50 (IC50 (μM)): 0.3 µM
CC(C)OP(=O)(OC(C)C)C(Cc1ccccc1F)c1sc2cc(Br)ccc2c1Br (stereo not drawn) [Cpd 199] | – | – | % I (1 μM): 81%
[2-(3,4-Difluoro-phenyl)-1-(3-methyl-benzo[b]thiophene-2-yl)-ethyl]-methyl-phosphonic acid ethyl ester [Cpd 30] | – | 0.12 µM and 0.2 µM | % I (1 μM): 100% and 99%
CCOP(=O)(OCC)C(Cc1ccccc1OC(F)(F)F)c1sc2ccccc2c1C (stereo not drawn) [Cpd 61] | – | 0.28 µM | % I (1 μM): 100%
CCOP(=O)(OCC)C(Cc1ccccc1Cl)c1cc2ccccc2s1 (stereo not drawn) [Cpd 85] | – | 0.48 µM | % I (1 μM): 90%; % I (5 μM): 100%
CCOP(=O)(OCC)C(Cc1ccccc1)c1cc2ccccc2s1 (stereo not drawn) [Cpd 74] | – | 0.38 µM | % I (1 μM): 92%
CCOP(=O)(OCC)C(Cc1cccc(Cl)c1)c1sc2ccccc2c1Cl (racemic) [Cpd 290] | 103% | 0.115 µM | –
COc1cccc(CC(c2sc3ccccc3c2Br)P(=O)(OC(C)C)OC(C)C)c1 (stereo not drawn) [Cpd 317] | 102% | 0.021 µM | –
CCOP(=O)(Cc1cc2ccccc2s1)OCc1ccccc1Cl (racemic) [Cpd 105] | – | 1.01 µM | % I (1 μM): 48%; % I (5 μM): 100%
CCOP(=O)(OCC)C(Cc1ccc(OC)c(C(F)(F)F)c1)c1sc2ccccc2c1Br (racemic) [Cpd 152] | 102% and 92% | 0.054 µM and 0.05 µM | –

Compound | % I (0.5 μM) | IC50 (read-out: IC50) | also measured
COc1ccc(CC(c2sc3ccccc3c2Br)P(=O)(OC(C)C)OC(C)C)cc1C(F)(F)F (stereo not drawn) [Cpd 326] | 103% and 102% | 0.086 µM and 0.051 µM | –
CC(C)OP(=O)(OC(C)C)C(Cc1ccc(F)cc1)c1sc2cc(Br)ccc2c1Br (stereo not drawn) [Cpd 200] | – | – | % I (1 μM): 81%
CCOP(=O)(OCC)C(Cc1cc(C(F)(F)F)cc(C(F)(F)F)c1)c1sc2ccccc2c1Br (stereo not drawn) [Cpd 261] | 102% | 0.073 µM and 0.077 µM | –
CCOP(=O)(OCC)C(Cc1cc(C(F)(F)F)cc(C(F)(F)F)c1)c1cc2ccccc2s1 (stereo not drawn) [Cpd 96] | – | 0.64 µM | % I (1 μM): 92%
CC(C)OP(=O)(OC(C)C)C(Cc1cc(C(F)(F)F)cc(Cl)c1F)c1cc2ccccc2s1 (stereo not drawn) [Cpd 126] | – | 0.41 µM | % I (1 μM): 100%
CCOP(=O)(Cc1cc2ccccc2s1)OCc1ccccc1F (stereo not drawn) [Cpd 109, Benzo[b]thiophen-2-ylmethyl-phosphonic acid ethyl ester 2-fluoro-benzyl ester] | – | – | % I (5 μM): 98%; inhibition at 1 µM [1]: 17%; IC50 (IC50 (μM)): 1.47 µM
CCOP(=O)(OCC)C(Cc1c(F)c(F)c(O)c(F)c1F)c1sc2ccccc2c1Br (racemic) [Cpd 228] | 94% | 0.129 µM | –
CCOP(=O)(OCC)C(Cc1ccc(C#N)cc1)c1sc2ccccc2c1Br (stereo not drawn) [Cpd 312] | 102% | 0.089 µM | –
CCOP(=O)(OCC)C(Cc1cc(C(F)(F)F)ccc1Cl)c1sc2ccccc2c1Br (racemic) [Cpd 148] | 103% | 0.172 µM | –
CC(C)OP(=O)(OC(C)C)C(Cc1c(F)c(F)c(O)c(F)c1F)c1sc2ccccc2c1Br (racemic) [Cpd 229] | 95% | 0.156 µM | –
CCOP(=O)(OCC)C(Cc1cccc(-c2ccccc2)c1)c1sc2ccccc2c1C (stereo not drawn) [Cpd 77] | – | – | inhibition at 1 µM [1]: 98%; IC50 (IC50 (μM)): 0.41 µM
CC(C)OP(=O)(OC(C)C)C(Cc1ccc(F)c(F)c1)c1sc2ccccc2c1C1CC1 (stereo not drawn) [Cpd 20, [1-(3-Cyclopropyl-benzo[b]thiophene-2-yl)-2-(3,4-difluoro-phenyl)-ethyl]-phosphonic acid diisopropyl ester] | – | 0.07 µM | inhibition at 1 µM (HEK293, 1 μM compound, read-out: % I (1 μM)): 100%
CC(C)OP(=O)(OC(C)C)C(Cc1cccc(O)c1F)c1sc2ccccc2c1Br (racemic) [Cpd 230] | 97% | 0.01 µM | –
CCOP(=O)(OCC)C(Cc1ccc(F)c(F)c1)c1sc2cc(Cl)ccc2c1C1CCCC1 (stereo not drawn) [Cpd 117, [1-(6-Chloro-3-cyclopentyl-benzo[b]thiophen-2-yl)-2-(3,4-difluoro-phenyl)-ethyl]-phosphonic acid diethyl ester] | – | – | inhibition at 1 µM [1]: 28%
CCOP(=O)(OCC)C(Cc1cc(OC)cc(OC)c1)c1sc2ccccc2c1Br (stereo not drawn) [Cpd 319] | 103% | 0.026 µM | –
CCOP(=O)(OCC)C(Cc1cc2c(cc1Cl)OCO2)c1cc2ccccc2s1 (stereo not drawn) [Cpd 112] | – | – | % I (1 μM): 42%
CC(C)OP(=O)(OC(C)C)C(Cc1ccc(S(C)(=O)=O)cc1)c1sc2ccccc2c1Br (stereo not drawn) [Cpd 252] | 44% | – | –
CCOP(=O)(OCC)C(Cc1ccc(F)c(F)c1)c1sc2cc(OC)ccc2c1C (stereo not drawn) [Cpd 82, [2-(3,4-Difluoro-phenyl)-1-[6-methoxy-3-methyl-benzo[b]thiophene-2-yl)-ethyl]-phosphonic acid diethyl ester] | – | – | inhibition at 1 µM [1]: 87%; IC50 (IC50 (μM)): 0.44 µM
CC(C)OP(=O)(OC(C)C)C(Cc1cccc(C(F)(F)F)c1)c1cc2ccccc2s1 (stereo not drawn) [Cpd 69] | – | 0.35 µM | % I (1 μM): 99%
COc1c(F)c(F)c(CC(c2sc3ccccc3c2Br)P(=O)(OC(C)C)OC(C)C)c(F)c1F (racemic) [Cpd 161] | 103% | 0.019 µM | –
